Results taken from patent US10125095B2, “Abscisic acid derivative” (NATIONAL UNIVERSITY CORPORATION SHIZUOKA UNIVERSITY, priority 2014, dated 2018).

Legend:
[1] = test system: thale cress (Arabidopsis thaliana, Col-0) seedlings; assay: Thale cress growth test; format: in vivo; conditions: 50 μM compound co-applied with 5 μM ABA, sprayed once a day; three weeks' culture
Protocol: Seeds of thale cress (Arabidopsis thaliana, Col-0) were sequentially immersed for 1 minute respectively in 500 μL of an aqueous solution of 5% bleach+1% SDS, 500 μL of a 70% aqueous solution of ethanol and 500 μL of a 70% aqueous solution of ethanol, washed five times in 1 mL of sterilized water, and then suspended in a 0.1% aqueous solution of agar. 25 mL each of germination medium (containing ½ MS medium inorganic salts) sterilized in an autoclave was added to a sterilized plastic petri dish, in which 60 to 80 seeds suspended in the 0.1% aqueous solution of agar were planted and, in a dark place, the seeds were vernilized at 4° C. for 3 days. The seeds were cultured at 22° C. under continuous light for 10 days. 40 g […] of sterilized soil (organic culture soil:vermiculite=1:1) was added to a plastic pot (50 mm×50 mm×50 mm, 35 mm bottom surface×35 mm height). Six plastic pots thus provided were placed in a 3000 mL-tray, 300 mL (depth 10 mm) of an aqueous solution of 1000-fold diluted HYPONeX (tradename (registered trademark), product of HYPONeX JAPAN CORP., LTD.) was added thereto and five roots each of thale cress seedlings were transplanted from the plastic petri dish. The seedlings were cultured at 22° C. under conditions of 16 hour light period-8 hour dark period, and 1 mL of an aqueous solution (prepared so as the final concentration of the compound of Example 7 to be 50 μM) of 0.1% DMSO (containing the compound of Example 7)+0.1% Approach BI (tradename (registered trademark), product of Kao Corporation) was sprayed once a day. Further, 300 mL of an aqueous solution of 2000-fold diluted HYPONeX was added every week. The same treatment as above was carried out using the compound of Comparative Example 1. Note that the seedlings, to which 1 mL of an aqueous solution of 0.1% DMSO+0.1% Approach BI without containing the above compound was sprayed once a day, were used as controls. […]

[2] = test system: seeds of thale cress (Arabidopsis thaliana, Col-0); assay: Thale cress seed germination test; format: in vivo
Protocol: Seeds of thale cress (Arabidopsis thaliana, Col-0) were immersed in 500 μL of an aqueous solution of 70% ethanol for 30 minutes, subsequently in 500 μL of a 100% ethanol solution for 1 minute, washed five times in 1 mL of distilled water, then immersed in distilled water and, in a dark place, vernalized at 4° C. for 3 days. A solution of the sample in methanol was put in a 1.5 mL-microtube, and methanol was removed therefrom under reduced pressure. An aqueous solution of 0.5% agar (containing ½ MS medium inorganic salts) at 70° C. was added thereto and stirred, and subsequently the obtained mixture was placed in a 96-well plate to prepare the medium containing the sample. All samples were prepared so as to have a concentration of 3 μM of the compound in Examples 1 to 9 and Comparative Example 1. Further, when ABA is applied, the ABA concentration was adjusted to 0.3 μM. 20 to 30 vernalized seeds of thale cress were planted in each well and cultured at 22° C. under continuous light to monitor the number of seeds germinated over time. The germination rate was calculated by the following formula (1). Note that those cultured in medium prepared using methanol in the same manner were used as controls. […] Germination rate (%)=Number of seeds germinated/Number of seeds planted×100 (1)
The same test was carried out as in Test Example 1 with the concentrations of the compound of Example 1 for treatment varying from 0.3 μM to 30 μM.
Similarly, the same test was carried out with the concentrations of the compound of Example 2 for treatment varying from 0.3 μM to 30 μM.
The same test was carried out as in Test Example 2 with the concentrations of the compounds for treatment varying from 0.3 μM to 3 μM to compare the recovery effects on seed germination rate of the compound of Example 1 and the compound of Comparative Example 1.

[3] = biological target: T1, recombined PYL5 (Arabidopsis thaliana, UniProt Q9FLB1); assay: Bonding affinity measurement using an isothermal titration calorimeter; format: binding, thale cress; conditions: ITC, 20° C., sodium phosphate buffer
T1 construct: 6xHis (N); made in house; host or cells: Escherichia coli BL21-codonplus(DE3)-RIPL
T1 sequence (Q9FLB1 1-203): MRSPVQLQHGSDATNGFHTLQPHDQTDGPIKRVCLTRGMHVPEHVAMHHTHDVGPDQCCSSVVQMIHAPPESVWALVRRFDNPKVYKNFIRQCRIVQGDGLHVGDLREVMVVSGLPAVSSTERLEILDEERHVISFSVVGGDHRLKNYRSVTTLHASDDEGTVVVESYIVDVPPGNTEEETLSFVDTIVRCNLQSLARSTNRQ
Protocol: A sodium phosphate buffer solution of a recombined PYL5 was prepared in the same procedure as in Test Example 5, and put in a reaction cell of an isothermal titration calorimeter (GE Healthcare, MicroCal iTC200), and a sodium phosphate buffer solution of the compound of Example 1 was put in the syringe. Then, the calorimeter was set to 20° C. and the measurement was carded out. The same measurement as above was also carried out for the compounds of Examples 7 to 9.

[4] = test system: lettuce (Lactuca saliva) seeds; assay: Lettuce seed germination test; format: in vivo; conditions: co-applied with ABA
[5] = test system: bok choy (Brassica rapa var. chinensis) seeds; assay: Bok choy seed germination test; format: in vivo; conditions: co-applied with ABA
[6] = 3 μM compound co-applied with 0.3 μM ABA

Row | SMILES | Growth suppression effect of ABA on thale cress [1] | Germination rate (%) 24 Hours later [2, 6] | Germination rate (%) 36 Hours later [2, 6] | Germination rate (%) 48 Hours later [2, 6] | Germination rate (%) 60 Hours later [2, 6] | Germination rate (%) 24 Hours later ([2]; compound alone, 3 μM) | Germination rate (%) 36 Hours later ([2]; compound alone, 3 μM) | Germination rate (%) 48 Hours later ([2]; compound alone, 3 μM) | Germination rate (%) 60 Hours later ([2]; compound alone, 3 μM) | Kd [3] | ΔG [3] | ΔH [3] | −TΔS [3] | Recovery of seed germination rate decreased by ABA ([2]; compound 0.3 μM to 30 μM co-applied with ABA) | Recovery of seed germination rate decreased by ABA [4] | Recovery of seed germination rate decreased by ABA [5]
1 | CCCCCCSC1=C(C)[C@](O)(/C=C/C(C)=C\C(=O)O)C(C)(C)CC1=O [Comparative Example 1, 3′-hexylsulfanyl-abscisic acid, reference compound] | the growth suppression effect of ABA was not substantially improved | 0% | 28% | 67% | 89% | 0% | 85% | 100% | 100% | 480 ± 100 nM | -9.6 ± 0.1 kcal/mol | -9.7 ± 0.2 kcal/mol | 1.2 kcal/mol | – | – | –
2 | CC1=C[C@@H](OCC#Cc2cccc3ccccc23)CC(C)(C)[C@@]1(O)/C=C/C(C)=C\C(=O)O [Example 2] | – | 9% | 22% | 53% | 89% | 11% | 27% | 77% | 100% | – | – | – | – | seed germination rates decreased by ABA are recovered | recovered the seed germination rates once decreased by ABA | recovered the seed germination rates once decreased by ABA
